US10112941B2, “Tricyclic compounds as anticancer agents” (BRISTOL-MYERS SQUIBB COMPANY, priority 2013, dated 2018)

molecular target: BRD4 (Homo sapiens, UniProt O60885); assay: Time Resolved Fluorescence Resonance Energy Transfer (TR-FRET) binding assay, BRD4; details: one of the FRET assays described; read-out: FRET BRD4 IC50

Row | SMILES | IC50
1 | COc1cc(F)c(C(C2CCOCC2)n2c3cc(C(C)(C)O)ccc3c3ncc(-c4c(C)nnn4C)cc32)cc1F (single isomer, unassigned) [Example 124, 2-{5-[(2,5-Difluoro-4-methoxyphenyl)(oxan-4-yl)methyl]-3-(dimethyl-1H-1,2,3-triazol-5-yl)-5H-pyrido[3,2-b]indol-7-yl}propan-2-ol] | < 5 nM
2 | Cc1noc(C)c1-c1cnc2c3ccc(C(C)(C)O)cc3n(C(c3ccc(F)cc3F)C3CCOCC3)c2c1 (single isomer, unassigned) [Example 125, 2-{5-[(2,4-Difluorophenyl)(oxan-4-yl)methyl]-3-(dimethyl-1,2-oxazol-4-yl)-5H-pyrido[3,2-b]indol-7-yl}propan-2-ol] | < 5 nM
3 | Cc1noc(C)c1-c1cnc2c3ccc(C(C)(C)O)cc3n(C(c3ccc(F)cc3F)C3CCOCC3)c2c1 (single isomer, unassigned) [Example 126, 2-{5-[(2,4-Difluorophenyl)(oxan-4-yl)methyl]-3-(dimethyl-1,2-oxazol-4-yl)-5H-pyrido[3,2-b]indol-7-yl}propan-2-ol] | < 25 nM
4 | Cc1noc(C)c1-c1cnc2c3ccc(C(C)(C)O)cc3n(C(c3c(F)cc(F)cc3F)C3CCOCC3)c2c1 (single isomer, unassigned) [Example 127, 2-[3-(Dimethyl-1,2-oxazol-4-yl)-5-[oxan-4-yl(2,4,6-trifluorophenyl)methyl]-5H-pyrido[3,2-b]indol-7-yl]propan-2-ol] | < 5 nM
5 | Cc1noc(C)c1-c1cnc2c3ccc(C(C)(C)O)cc3n(C(c3c(F)cc(F)cc3F)C3CCOCC3)c2c1 (single isomer, unassigned) [Example 128, 2-[3-(Dimethyl-1,2-oxazol-4-yl)-5-[oxan-4-yl(2,4,6-trifluorophenyl)methyl]-5H-pyrido[3,2-b]indol-7-yl]propan-2-ol] | < 25 nM
6 | Cc1noc(C)c1-c1cnc2c3ccc(C(C)(C)O)cc3n(C(c3cc(F)cc(F)c3)C3CCOCC3)c2c1 (single isomer, unassigned) [Example 129, 2-{5-[(3,5-Difluorophenyl)(oxan-4-yl)methyl]-3-(dimethyl-1,2-oxazol-4-yl)-5H-pyrido[3,2-b]indol-7-yl}propan-2-ol] | < 1500 nM
7 | Cc1noc(C)c1-c1cnc2c3ccc(C(C)(C)O)cc3n(C(c3cc(F)cc(F)c3)C3CCOCC3)c2c1 (single isomer, unassigned) [Example 130, 2-{5-[(3,5-Difluorophenyl)(oxan-4-yl)methyl]-3-(dimethyl-1,2-oxazol-4-yl)-5H-pyrido[3,2-b]indol-7-yl}propan-2-ol] | < 5 nM
8 | Cc1nnn(C)c1-c1cnc2c3ccc(C(C)(C)O)cc3n(C(c3cc(F)ccc3F)C3CCOCC3)c2c1 (single isomer, unassigned) [Example 131, 2-{5-[(2,5-Difluorophenyl)(oxan-4-yl)methyl]-3-(dimethyl-1H-1,2,3-triazol-5-yl)-5H-pyrido[3,2-b]indol-7-yl}propan-2-ol] | < 5 nM
9 | Cc1nnn(C)c1-c1cnc2c3ccc(C(C)(C)O)cc3n(C(c3cc(F)ccc3F)C3CCOCC3)c2c1 (single isomer, unassigned) [Example 132, 2-{5-[(2,5-Difluorophenyl)(oxan-4-yl)methyl]-3-(dimethyl-1H-1,2,3-triazol-5-yl)-5H-pyrido[3,2-b]indol-7-yl}propan-2-ol] | < 5 nM
10 | Cc1nnn(C)c1-c1cnc2c3ccc(C(C)(C)O)cc3n(C(c3c(F)cccc3F)C3CCOCC3)c2c1 (single isomer, unassigned) [Example 133, 2-{5-[(2,6-Difluorophenyl)(oxan-4-yl)methyl]-3-(dimethyl-1H-1,2,3-triazol-5-yl)-5H-pyrido[3,2-b]indol-7-yl}propan-2-ol] | < 5 nM
11 | Cc1nnn(C)c1-c1cnc2c3ccc(C(C)(C)O)cc3n(C(c3c(F)cccc3F)C3CCOCC3)c2c1 (single isomer, unassigned) [Example 134, 2-{5-[(2,6-Difluorophenyl)(oxan-4-yl)methyl]-3-(dimethyl-1H-1,2,3-triazol-5-yl)-5H-pyrido[3,2-b]indol-7-yl}propan-2-ol] | < 5 nM
12 | Cc1nnn(C)c1-c1cnc2c3ccc(C(C)(C)O)cc3n(C(c3ccc(F)cc3F)C3CCOCC3)c2c1 (single isomer, unassigned) [Example 135, 2-{5-[(2,4-Difluorophenyl)(oxan-4-yl)methyl]-3-(dimethyl-1H-1,2,3-triazol-5-yl)-5H-pyrido[3,2-b]indol-7-yl}propan-2-ol] | < 5 nM
13 | Cc1nnn(C)c1-c1cnc2c3ccc(C(C)(C)O)cc3n(C(c3ccc(F)cc3F)C3CCOCC3)c2c1 (single isomer, unassigned) [Example 136, 2-{5-[(2,4-Difluorophenyl)(oxan-4-yl)methyl]-3-(dimethyl-1H-1,2,3-triazol-5-yl)-5H-pyrido[3,2-b]indol-7-yl}propan-2-ol] | < 5 nM
14 | COc1cc(C(C)(C)O)cc2c1c1ncc(-c3c(C)nnn3C)cc1n2C(c1ccccc1F)C1CCOCC1 (single isomer, unassigned) [Example 137, 2-[3-(Dimethyl-1H-1,2,3-triazol-5-yl)-5-[(2-fluorophenyl)(oxan-4-yl)methyl]-9-methoxy-5H-pyrido[3,2-b]indol-7-yl]propan-2-ol] | < 5 nM
15 | COc1cc(C(C)(C)O)cc2c1c1ncc(-c3c(C)nnn3C)cc1n2C(c1ccccc1F)C1CCOCC1 (single isomer, unassigned) [Example 138, 2-[3-(Dimethyl-1H-1,2,3-triazol-5-yl)-5-[(2-fluorophenyl)(oxan-4-yl)methyl]-9-methoxy-5H-pyrido[3,2-b]indol-7-yl]propan-2-ol] | < 5 nM
16 | Cc1noc(C)c1-c1cnc2c3ccc(C(C)(C)O)cc3n(C(c3cc(F)ccc3F)C3CCOCC3)c2c1 (single isomer, unassigned) [Example 139, 2-{5-[(2,5-Difluorophenyl)(oxan-4-yl)methyl]-3-(dimethyl-1,2-oxazol-4-yl)-5H-pyrido[3,2-b]indol-7-yl}propan-2-ol] | < 5 nM
17 | Cc1noc(C)c1-c1cnc2c3ccc(C(C)(C)O)cc3n(C(c3cc(F)ccc3F)C3CCOCC3)c2c1 (single isomer, unassigned) [Example 140, 2-{5-[(2,5-Difluorophenyl)(oxan-4-yl)methyl]-3-(dimethyl-1,2-oxazol-4-yl)-5H-pyrido[3,2-b]indol-7-yl}propan-2-ol] | < 5 nM
18 | Cc1noc(C)c1-c1cnc2c3ccc(C(C)(C)O)cc3n(C(c3ccc(F)c(F)c3)C3CCOCC3)c2c1 (single isomer, unassigned) [Example 141, 2-{5-[(3,4-Difluorophenyl)(oxan-4-yl)methyl]-3-(dimethyl-1,2-oxazol-4-yl)-5H-pyrido[3,2-b]indol-7-yl}propan-2-ol] | < 25 nM
19 | Cc1noc(C)c1-c1cnc2c3ccc(C(C)(C)O)cc3n(C(c3ccc(F)c(F)c3)C3CCOCC3)c2c1 (single isomer, unassigned) [Example 142, 2-{5-[(3,4-Difluorophenyl)(oxan-4-yl)methyl]-3-(dimethyl-1,2-oxazol-4-yl)-5H-pyrido[3,2-b]indol-7-yl}propan-2-ol] | < 5 nM
20 | Cc1noc(C)c1-c1cnc2c3ccc(C(C)(C)O)cc3n(C(c3c(F)cccc3F)C3CCOCC3)c2c1 (single isomer, unassigned) [Example 143, 2-{5-[(2,6-Difluorophenyl)(oxan-4-yl)methyl]-3-(dimethyl-1,2-oxazol-4-yl)-5H-pyrido[3,2-b]indol-7-yl}propan-2-ol] | < 5 nM
21 | Cc1noc(C)c1-c1cnc2c3ccc(C(C)(C)O)cc3n(C(c3c(F)cccc3F)C3CCOCC3)c2c1 (single isomer, unassigned) [Example 144, 2-{5-[(2,6-Difluorophenyl)(oxan-4-yl)methyl]-3-(dimethyl-1,2-oxazol-4-yl)-5H-pyrido[3,2-b]indol-7-yl}propan-2-ol] | < 5 nM
22 | Cc1noc(C)c1-c1cnc2c3ccc(C(C)(C)O)cc3n(C(c3cccc(F)c3F)C3CCOCC3)c2c1 (single isomer, unassigned) [Example 145, 2-{5-[(2,3-Difluorophenyl)(oxan-4-yl)methyl]-3-(dimethyl-1,2-oxazol-4-yl)-5H-pyrido[3,2-b]indol-7-yl}propan-2-ol] | < 5 nM
23 | Cc1noc(C)c1-c1cnc2c3ccc(C(C)(C)O)cc3n(C(c3cccc(F)c3F)C3CCOCC3)c2c1 (single isomer, unassigned) [Example 146, 2-{5-[(2,3-Difluorophenyl)(oxan-4-yl)methyl]-3-(dimethyl-1,2-oxazol-4-yl)-5H-pyrido[3,2-b]indol-7-yl}propan-2-ol] | < 5 nM
24 | Cc1noc(C)c1-c1cnc2c3ccc(C(C)(C)O)cc3n(C(c3cccc(F)c3)C3CCOCC3)c2c1 (single isomer, unassigned) [Example 147, 2-[3-(Dimethyl-1,2-oxazol-4-yl)-5-[(3-fluorophenyl)(oxan-4-yl)methyl]-5H-pyrido[3,2-b]indol-7-yl]propan-2-ol] | < 5 nM
25 | Cc1noc(C)c1-c1cnc2c3ccc(C(C)(C)O)cc3n(C(c3cccc(F)c3)C3CCOCC3)c2c1 (single isomer, unassigned) [Example 148, 2-[3-(Dimethyl-1,2-oxazol-4-yl)-5-[(3-fluorophenyl)(oxan-4-yl)methyl]-5H-pyrido[3,2-b]indol-7-yl]propan-2-ol] | < 25 nM
26 | Cc1noc(C)c1-c1cnc2c3ccc(C(C)(C)O)cc3n(C(c3ccccc3F)C3CCOCC3)c2c1 (single isomer, unassigned) [Example 149, 2-[3-(Dimethyl-1,2-oxazol-4-yl)-5-[(2-fluorophenyl)(oxan-4-yl)methyl]-5H-pyrido[3,2-b]indol-7-yl]propan-2-ol] | < 5 nM
27 | Cc1noc(C)c1-c1cnc2c3ccc(C(C)(C)O)cc3n(C(c3ccccc3F)C3CCOCC3)c2c1 (single isomer, unassigned) [Example 150, 2-[3-(Dimethyl-1,2-oxazol-4-yl)-5-[(2-fluorophenyl)(oxan-4-yl)methyl]-5H-pyrido[3,2-b]indol-7-yl]propan-2-ol] | < 5 nM
28 | Cc1noc(C)c1-c1cnc2c3ccc(S(C)(=O)=O)cc3n(C(c3ccccc3)C3CCC(F)(F)CC3)c2c1 (single isomer, unassigned) [Example 154, 4-{5-[(4,4-Difluorocyclohexyl)(phenyl)methyl]-7-methanesulfonyl-5H-pyrido[3,2-b]indol-3-yl}-3,5-dimethyl-1,2-oxazole] | < 25 nM
